For 14 compounds, IC50, logP and ED200 results are on record in ChEMBL document CHEMBL1136099, “Heterocyclic thrombin inhibitors. Part 1: design and synthesis of amidino-phenoxy quinoline derivatives” (Bioorg Med Chem Lett, 2003).

One series has as its target Serine protease 1 (Homo sapiens, UniProt P07477). The experiment in a line: Inhibitory activity against trypsin.
A further series has as its target Prothrombin (Homo sapiens, UniProt P00734). The series is described as follows: In vitro inhibitory activity against thrombin in human plasma. In kind it is cell-free.
The target in the next series is Plasminogen (Homo sapiens, UniProt P00747). The series is described as follows: Inhibitory activity against plasmin in human plasma.
Plasminogen, sequence (P00747 97-580 limits assumed): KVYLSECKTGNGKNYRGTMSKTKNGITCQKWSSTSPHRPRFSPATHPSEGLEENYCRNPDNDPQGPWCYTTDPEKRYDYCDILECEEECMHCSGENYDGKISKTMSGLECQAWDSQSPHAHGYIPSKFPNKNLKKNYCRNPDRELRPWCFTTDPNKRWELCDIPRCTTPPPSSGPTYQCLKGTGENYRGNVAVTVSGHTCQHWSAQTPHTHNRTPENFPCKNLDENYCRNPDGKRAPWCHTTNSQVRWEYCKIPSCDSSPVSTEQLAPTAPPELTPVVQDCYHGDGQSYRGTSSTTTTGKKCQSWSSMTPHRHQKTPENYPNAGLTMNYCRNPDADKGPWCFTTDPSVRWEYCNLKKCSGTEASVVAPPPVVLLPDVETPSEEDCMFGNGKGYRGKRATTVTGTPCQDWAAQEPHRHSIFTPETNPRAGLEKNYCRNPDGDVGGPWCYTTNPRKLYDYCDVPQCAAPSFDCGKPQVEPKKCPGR
Plasminogen, sequence (P00747 581-810 limits assumed): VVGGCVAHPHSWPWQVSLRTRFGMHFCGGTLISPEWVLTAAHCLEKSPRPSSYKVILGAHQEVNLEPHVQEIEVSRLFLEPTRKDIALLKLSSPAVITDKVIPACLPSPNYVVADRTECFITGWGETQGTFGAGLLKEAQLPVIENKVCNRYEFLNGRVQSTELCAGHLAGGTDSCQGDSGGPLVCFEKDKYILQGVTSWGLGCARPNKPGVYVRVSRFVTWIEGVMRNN
Series [1] can be described thus: Partition coefficient (logP). It is filed as physicochemical. As to conditions: octanol/water.
A further series is filed under the species Homo sapiens. The experiment in a line: Effective dose (in vitro) using activated partial thromboplastin time (aPTT). It is filed as functional.
Another series concerns the target Coagulation factor X (Homo sapiens, UniProt P00742). The experiment in a line: Inhibitory activity against coagulation factor X in human plasma. It is filed as cell-free.

Where only a bound is given, the exact number is not on record here.

Serine protease 1, sequence (P07477 whole entry): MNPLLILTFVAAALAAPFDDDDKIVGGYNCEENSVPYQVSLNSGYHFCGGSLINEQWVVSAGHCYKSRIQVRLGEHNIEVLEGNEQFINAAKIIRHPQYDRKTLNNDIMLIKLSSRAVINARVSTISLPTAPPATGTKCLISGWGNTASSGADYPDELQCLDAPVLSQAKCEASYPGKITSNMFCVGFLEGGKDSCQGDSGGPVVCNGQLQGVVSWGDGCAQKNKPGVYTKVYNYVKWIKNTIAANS
Coagulation factor X, sequence (P00742 41-179 limits assumed): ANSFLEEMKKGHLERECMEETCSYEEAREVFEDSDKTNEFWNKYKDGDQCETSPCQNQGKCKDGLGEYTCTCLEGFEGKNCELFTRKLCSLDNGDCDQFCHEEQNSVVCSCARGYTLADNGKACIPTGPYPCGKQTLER
Coagulation factor X, sequence (P00742 235-488 limits assumed): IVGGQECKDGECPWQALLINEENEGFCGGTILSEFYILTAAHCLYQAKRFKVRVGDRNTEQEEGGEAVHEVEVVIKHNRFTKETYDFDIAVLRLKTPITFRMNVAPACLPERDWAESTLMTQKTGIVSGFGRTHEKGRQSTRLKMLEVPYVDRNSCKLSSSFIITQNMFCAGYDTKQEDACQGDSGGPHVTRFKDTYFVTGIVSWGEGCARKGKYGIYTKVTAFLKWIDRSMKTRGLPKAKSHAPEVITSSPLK

Consider `Cc1ccc(-c2ccc3c(C)cc(Oc4ccc(C(=N)N)cc4)nc3c2)cc1`, for which the IC50 was 4200 nM against Serine protease 1, 18 nM on Prothrombin and 12200 nM on Plasminogen.

In series [1], `Cc1ccc(C(=O)NCC(=O)O)cc1-c1ccc2c(C)cc(Oc3ccc(C(=N)N)cc3)nc2c1` yielded a lipophilicity (logP) of 0.5. This compound also yielded an IC50 against Prothrombin of 8 nM. In the series listed under Homo sapiens, this compound registered an ED200 of 0.9 µM.

With `Cc1ccccc1-c1ccc2c(C)cc(Nc3ccc(C(=N)N)cc3)nc2c1`, the IC50 against Serine protease 1 turned out to be 3500 nM; on Prothrombin it was 37 nM; on Plasminogen, 14800 nM.

On Prothrombin, `CCOC(=O)Cc1ccc2c(C)cc(Oc3ccc(C(=N)N)cc3)nc2c1` yielded a half-maximal inhibitory concentration (IC50) of 92 nM.

For the compound `CCOC(=O)CNC(=O)c1ccc(C)c(-c2ccc3c(C)cc(Oc4ccc(C(=N)N)cc4)nc3c2)c1`, in series [1], the logP came to 1.3. 10 nM corresponded to half-maximal inhibition at Prothrombin (IC50). The ED200 in the series filed under Homo sapiens amounted to 3.3 µM.

`Cc1cc(Oc2ccc(C(=N)N)cc2)nc2cc(Br)ccc12` gave an IC50 against Prothrombin of 66 nM.

At Prothrombin, `CCOC(=O)C(CC)c1ccc2c(C)cc(Oc3ccc(C(=N)N)cc3)nc2c1` (stereo not given) registered an IC50 of 10 nM.

For `CCOC(=O)/C=C(\C)c1ccc2c(C)cc(Oc3ccc(C(=N)N)cc3)nc2c1`, the IC50 is 6700 nM at Serine protease 1, 16 nM against Prothrombin and 6400 nM against Plasminogen.

Regarding `Cc1ccccc1-c1ccc2c(C)cc(Oc3ccc(C(=N)N)cc3)nc2c1`, the logP in series [1] was more than 3.5. For the same compound, the IC50 is 2900 nM on Serine protease 1, 6 nM against Prothrombin and 8300 nM on Plasminogen. In the series filed under Homo sapiens, this compound gave an ED200 of 7.9 µM.

Take `CCOC(=O)C(C)(C)c1ccc2c(C)cc(Oc3ccc(C(=N)N)cc3)nc2c1`: the IC50 against Serine protease 1 came to 2400 nM; against Prothrombin, 6 nM; against Plasminogen, 20000 nM.

With `CCOC(=O)C1(c2ccc3c(C)cc(Oc4ccc(C(=N)N)cc4)nc3c2)CCCC1`, the IC50 at Serine protease 1 worked out at 560 nM; against Prothrombin, 3 nM; against Coagulation factor X, 1500 nM; against Plasminogen it was 5800 nM.

With `C/C(=C\C(=O)O)c1ccc2c(C)cc(Oc3ccc(C(=N)N)cc3)nc2c1`, the IC50 was determined as 8100 nM against Serine protease 1, 600 nM against Prothrombin and 25000 nM against Plasminogen.

On Prothrombin, `Cc1cc(Nc2ccc(C(=N)N)cc2)nc2cc(Br)ccc12` came in with an IC50 of 87 nM.

As for `Cc1cc(Sc2ccc(C(=N)N)cc2)nc2cc(Br)ccc12`, the IC50 on Prothrombin stood at 196 nM.

The IC50 is the point on the concentration scale where inhibition reaches its midpoint. A high value points to weaker potency. What is called logP is the decadic logarithm of the partition coefficient of the neutral form, usually between octanol and water. Read a high logP as higher lipophilicity.
